Where two headings read alike, the source gives them in different places.
Tests used:
menin = molecular target: T1, menin (Homo sapiens, UniProt O00255, T541A); assay: Menin/MLL homogenous time-resolved fluorescence (HTRF) assay; type: binding
T1 construct: Menin (a.a. 1-610-6×his tag)
T1 sequence (O00255 with tags, fused parts or gaps T541A): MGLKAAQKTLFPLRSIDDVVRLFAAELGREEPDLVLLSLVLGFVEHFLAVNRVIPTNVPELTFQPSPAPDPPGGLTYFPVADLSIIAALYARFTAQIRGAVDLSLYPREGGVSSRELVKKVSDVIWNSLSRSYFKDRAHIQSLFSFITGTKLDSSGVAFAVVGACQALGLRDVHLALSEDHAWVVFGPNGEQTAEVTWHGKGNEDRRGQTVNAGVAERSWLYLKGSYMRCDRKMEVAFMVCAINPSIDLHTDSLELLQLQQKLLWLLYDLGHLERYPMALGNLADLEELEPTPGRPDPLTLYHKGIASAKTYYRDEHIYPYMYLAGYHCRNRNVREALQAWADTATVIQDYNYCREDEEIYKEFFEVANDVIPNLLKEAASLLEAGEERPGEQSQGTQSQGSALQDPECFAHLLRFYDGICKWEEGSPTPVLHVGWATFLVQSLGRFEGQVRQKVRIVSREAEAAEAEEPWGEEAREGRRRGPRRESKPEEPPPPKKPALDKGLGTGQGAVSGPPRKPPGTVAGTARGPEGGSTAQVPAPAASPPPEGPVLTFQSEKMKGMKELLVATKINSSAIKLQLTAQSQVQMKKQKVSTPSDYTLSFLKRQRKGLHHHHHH
In short: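 Displacement of 75 nM FITC-MBM1 from terbium-cryptate-labeled His-tagged menin 1-610 ([…]) was read as the 520/490 nm HTRF ratio. Compound (11-point, 3-fold series) got 5 min with menin before peptide, then 15 min at ambient; 0.5% DMSO, Tris pH 7.5.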

MV-4-11 [1] = assay: Proliferation assay A (spheroid assay) MV-4-11; type: cell-based, human; conditions: MV-4-11 cells, 8 d, AUC of confluence against time, absolute IC50, read-out: (3a) Spheroid assay MV-4-11 (IC50(μM)) Assay A
Description: (§1) 3a) Proliferation Assay A
(§2) The anti-proliferative effect of menin/MLL protein/protein interaction inhibitor test compounds was assessed in human leukemia cell lines. The cell lines MV-4-11 and MOLM14 harbor MILL translocations and express the MILL fusion proteins MLL-AF4 and MLL-AF9, respectively, as well as the wildtype protein from the second allele. […] K562 was used as a control cell line containing two MLL wildtype alleles in order to exclude compounds that display general cytotoxic effects.
(§3) MV-4-11 and MOLM14 were cultured in RPMI-1640 (Sigma Aldrich) supplemented with 10% fetal bovine serum (HyClone), 2 mM L-glutamine (Sigma Aldrich) and 50 μg/ml gentamycin (Gibco). K562 were propagated in RPMI-1640 (Sigma Aldrich) supplemented with 20% fetal bovine serum (HyClone), 2 mM L-glutamine (Sigma Aldrich) and 50 μg/ml gentamycin (Gibco).
(§4) In order to assess the anti-proliferative effects, 1,500 MV-4-11, 300 MOLM14 or 750 K562 cells were seeded in 200 μl media per well in 96-well round bottom, ultra-low attachment plates (Costar, catalogue number 7007). Cell seeding numbers were chosen based on growth curves to ensure linear growth throughout the experiment. Test compounds were added at different concentrations and the DMSO content was normalized to 0.3%. Cells were incubated for 8 d at 37° C. and 5% CO2. Spheroid like growth was monitored in real-time by live-cell imaging (IncuCyteZOOM, Essenbio, 4× objective) acquiring one image every four hours for 8 d. Confluence (%) as a measure of spheroid size was determined using an integrated analysis tool.
(§5) In order to determine the cumulative effect of the test compounds over time, the area under the curve (AUC) in a plot of confluence against time was calculated. Confluence at the beginning of the experiment (t=0) was used as baseline for the AUC calculation.
(§6) Absolute IC50 values were calculated according to the following procedure: % Control=(AUC sample/AUC control)*100
(§7) AUC control mean AUC of control values (cells without compound/DMSO as vehicle control)
(§8) A non-linear curve fit was applied using the least squares (ordinary) fit method to the plot of % control versus compound concentration. Based on this, the absolute IC50 value (half maximal inhibitory concentration of the test compound causing an anti-proliferative effect of 50% relative to the vehicle control) was calculated.

MOLM14 [2] = assay: Proliferation assay A (spheroid assay) MOLM14; type: cell-based, human; conditions: MOLM14 cells, 8 d, AUC of confluence against time, absolute IC50, read-out: (3a) Spheroid assay MOLM14 (IC50(μM)) Assay A
Description: as §1, §2, §3, §4, §5, §6, §7, §8

MV-4-11 [3] = assay: Proliferation assay B (spheroid assay) MV-4-11; type: cell-based, human; conditions: Homo sapiens, MV4-11, 192 h, MV-4-11 cells, confluence at day 8, absolute IC50; read-out: (3b) Spheroid assay MV-4--11 (IC50(μM)) Assay B
In short: (§9)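 IC50 derived from % effect on day-8 imaged confluence, scaled between DMSO-treated cells (high) and 1 μM staurosporine (low), using a variable-slope fit constrained 0-100%. Cells seeded as spheroids in ultra-low-attachment plates and exposed to compound for 8 days, 0.3% DMSO.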

MOLM14 [4] = assay: Proliferation assay B (spheroid assay) MOLM14; type: cell-based, human; conditions: Homo sapiens, MOLM-14, 192 h, MOLM14 cells, confluence at day 8, absolute IC50; read-out: (3b) Spheroid assay MOLM14 (IC50(μM)) Assay B
In short: as §9

[5] = location 1, read-out: (2) location 1 Menin HTRF assay (IC50 (nM))
[6] = location 2, read-out: (2) location 2 Menin HTRF assay (IC50 (nM))

IC50 (menin; [5]) [nM] | IC50 (MV-4-11 [1]; Homo sapiens, MV4-11, 192 h) [µM] | IC50 (MOLM14 [2]; Homo sapiens, MOLM-14, 192 h) [µM] | IC50 (menin; [6]) [nM] | IC50 (MV-4-11 [3]) [µM] | IC50 (MOLM14 [4]) [µM] | IC50 (MV-4-11 [1]) [µM] | IC50 (MOLM14 [2]) [µM] | Structure (SMILES)
23.8 | 0.55 | 1.84 |  |  |  |  |  | FC(F)(F)Cc1cc2c(N3CC4(CC(NCc5ccccc5)C4)C3)ncnc2s1 [Compound 428]
 | > 3.75 |  | 94.2 | > 3.75 | > 3.75 |  |  | N#CCc1ccc(NC2CCC3(C2)CN(c2nc(N)nc4sc(CC(F)(F)F)cc24)C3)cc1 (racemic) [Compound 387]
 | 3.83 | > 3.75 | 27.1 |  |  |  |  | FC(F)(F)Cc1cc2c(N3CCC4(CC(Nc5ccc6cc(C(F)(F)F)[nH]c6c5)C4)C3)ncnc2s1 (mixture of isomers) [Compound 314]
 | 1.11 | 1.78 | 62.7 |  |  |  |  | CC(C)(N[C@H]1CCC2(C1)CN(c1ncnc3sc(CC(F)(F)F)cc13)C2)c1ccccc1 (single isomer, unassigned) [Compound 281]
 | 3.67 | > 3.75 | 37.5 |  |  |  |  | FC(F)(F)Cc1cc2c(N3CCC4(CC(Nc5ccccc5)C4)C3)ncnc2s1 (single isomer, unassigned) [Compound 149]
 | 2.65 | > 3.75 | 16.2 |  |  |  |  | O=c1[nH]c2cc(NC3CCC4(C3)CN(c3ncnc5sc(CC(F)(F)F)cc35)C4)ccc2o1 (stereo not drawn) [Compound 285]
 | 2.84 | > 3.75 | 14.6 |  |  |  |  | CNc1nc(N2CCC3(CC(Nc4ccc(CC#N)cc4)C3)C2)c2cc(CC(F)(F)F)sc2n1 (mixture of isomers) [Compound 390]
 | > 3.75 |  | 51.4 | > 3.75 | > 3.75 |  |  | O=c1[nH]c2ccc(NC3CC4(CCN(c5ncnc6sc(CC(F)(F)F)cc56)C4)C3)cc2o1 (mixture of isomers) [Compound 322]
 | 2.13 | 2.9 | 52.4 |  |  |  |  | CNc1nc(N2CC3(CCC(NCc4ccc5[nH]c(=O)[nH]c5c4)C3)C2)c2cc(CC(F)(F)F)sc2n1 (stereo not drawn) [Compound 120]
 | > 3.75 | > 3.75 | 135 |  |  |  |  | FC(F)(F)Cc1cc2c(N3CC4(CCC(Nc5ccc6cc(C(F)(F)F)[nH]c6c5)C4)C3)ncnc2s1 (stereo not drawn) [Compound 288]
 | 0.9 | 3.05 | 8.4 |  |  |  |  | N#CC1(c2ccc(NC3CC4(CCN(c5ncnc6sc(CC(F)(F)F)cc56)C4)C3)cc2)CC1 (single isomer, unassigned) [Compound 172]
 |  |  | 3.6 | 0.06 | 0.44 | 0.04 |  | CNC(=O)c1ccc(NC2CC3(CCN(c4ncnc5sc(CC(F)(F)F)cc45)C3)C2)cc1 (single isomer, unassigned) [Compound 94]
 | 1.01 | 1.13 | 44.3 |  |  |  |  | N#CCc1ccc(NC2CC3(CCN(c4ncnc5sc(CC(F)(F)F)cc45)C3)C2)c(F)c1 (stereo not drawn) [Compound 63]
 | 1.65 | 2.52 | 20.8 |  |  |  |  | N#CCc1ccc(NC2CC3(CCN(c4ncnc5sc(CC(F)(F)F)cc45)C3)C2)cc1F (mixture of isomers) [Compound 168]
 | 1.94 | 1.68 | 32.2 |  |  |  |  | N#CCc1ccc(NC2CCC3(CCN(c4ncnc5sc(CC(F)(F)F)cc45)C3)C2)cc1 (stereo not drawn) [Compound 143]
 | 0.1 | 0.29 | 2.4 |  |  |  |  | CNc1nc(N2CCC3(CC(NCc4ccccc4)C3)C2)c2cc(CC(F)(F)F)sc2n1 (stereo not drawn) [Compound 61]

More lines, now with the values behind:

Structure (SMILES) | IC50 (menin; [5]) [nM] | IC50 (MV-4-11 [1]; Homo sapiens, MV4-11, 192 h) [µM] | IC50 (MOLM14 [2]; Homo sapiens, MOLM-14, 192 h) [µM] | IC50 (menin; [6]) [nM] | IC50 (MV-4-11 [3]) [µM] | IC50 (MOLM14 [4]) [µM] | IC50 (MV-4-11 [1]) [µM] | IC50 (MOLM14 [2]) [µM]
FC(F)(F)Cc1cc2c(N3CC[C@@]4(CC[C@@H](NCc5ccccc5)C4)C3)ncnc2s1 (single isomer, unassigned) [Compound 3] | 75.7 | 0.75 | 2.39 | 10 |  |  |  | 
FC(F)(F)Cc1cc2c(N3CC4(CCC(NCc5cccc(-c6cc[nH]n6)c5)C4)C3)ncnc2s1 (stereo not drawn) [Compound 17] |  | 1.36 | 3.51 | 7.2 |  |  |  | 
O=c1[nH]c2ccc(CNC3CCC4(C3)CN(c3ncnc5sc(CC(F)(F)F)cc35)C4)cc2o1 (single isomer, unassigned) [Compound 55] |  | 0.28 | 1.27 | 7 |  |  |  | 
FC(F)(F)Cc1cc2c(N3CCC4(CCC(NCc5ccccc5)CC4)C3)ncnc2s1 (stereo not drawn) [Compound 1] | 3.7 | 0.17 | 0.79 | 5 |  |  |  | 
O=c1[nH]c2ccc(CNC3CCC4(C3)CN(c3ncnc5sc(CC(F)(F)F)cc35)C4)cc2[nH]1 (stereo not drawn) [Compound 14] | 5.9 | 0.39 | 2.3 | 0.8 |  |  |  | 
O=c1[nH]c2cc(CNC3CCC4(C3)CN(c3ncnc5sc(CC(F)(F)F)cc35)C4)ccc2o1 (stereo not drawn) [Compound 16] |  | 0.03 | 0.19 | 2 |  |  |  | 
O=c1[nH]c2cc(CNC3CCC4(C3)CN(c3ncnc5sc(CC(F)(F)F)cc35)C4)ccc2o1 (single isomer, unassigned) [Compound 57] |  |  |  | 3.6 |  |  | 0.09 | 0.44
O=c1[nH]c2ccc(CNC3CCC4(C3)CN(c3ncnc5sc(CC(F)(F)F)cc35)C4)cc2o1 (stereo not drawn) [Compound 15] |  | 0.25 | 1.29 | 2.2 |  |  |  | 
CC(C)NC1CC2(CCN(c3ncnc4sc(CC(F)(F)F)cc34)C2)C1 (stereo not drawn) [Compound 51] | 61.3 | 0.81 | 2.46 |  |  |  |  | 
N#CCc1ccc(NC2CC3(CCN(c4ncnc5sc(CC(F)(F)F)cc45)C3)C2)cc1 (stereo not drawn) [Compound 44] |  | 2.08 | 2.61 | 11.3 |  |  |  | 
COc1nc(N2CCC3(CC(NCc4ccccc4)C3)C2)c2cc(CC(F)(F)F)sc2n1 (stereo not drawn) [Compound 59] |  | 0.28 | 0.85 | 4.5 |  |  |  | 
FC(F)(F)Cc1cc2c(N3CCC4(CCC(Nc5ccccc5)C4)C3)ncnc2s1 (single isomer, unassigned) [Compound 33] |  | 5.11 | 4.45 | 2050 |  |  |  | 
CC(NC1CCC2(C1)CN(c1ncnc3sc(CC(F)(F)F)cc13)C2)c1ccccc1 (stereo not drawn) [Compound 42] |  | 1.24 | 0.69 | 43.8 |  |  |  | 
CC(C)N(C)CC1CC2(CCN(c3ncnc4sc(CC(F)(F)F)cc34)C2)C1 (stereo not drawn) [Compound 40] |  | 3.13 | 2.64 | 90.9 |  |  |  | 
